In the assay the target is T1, USP8 (Homo sapiens, UniProt P40818).
T1 construct: His tag (pFastBac-HT vector) (N); made in house; host or cells: Sf9 or High Five insect cells (baculovirus)
T1 sequence (P40818 1-1118): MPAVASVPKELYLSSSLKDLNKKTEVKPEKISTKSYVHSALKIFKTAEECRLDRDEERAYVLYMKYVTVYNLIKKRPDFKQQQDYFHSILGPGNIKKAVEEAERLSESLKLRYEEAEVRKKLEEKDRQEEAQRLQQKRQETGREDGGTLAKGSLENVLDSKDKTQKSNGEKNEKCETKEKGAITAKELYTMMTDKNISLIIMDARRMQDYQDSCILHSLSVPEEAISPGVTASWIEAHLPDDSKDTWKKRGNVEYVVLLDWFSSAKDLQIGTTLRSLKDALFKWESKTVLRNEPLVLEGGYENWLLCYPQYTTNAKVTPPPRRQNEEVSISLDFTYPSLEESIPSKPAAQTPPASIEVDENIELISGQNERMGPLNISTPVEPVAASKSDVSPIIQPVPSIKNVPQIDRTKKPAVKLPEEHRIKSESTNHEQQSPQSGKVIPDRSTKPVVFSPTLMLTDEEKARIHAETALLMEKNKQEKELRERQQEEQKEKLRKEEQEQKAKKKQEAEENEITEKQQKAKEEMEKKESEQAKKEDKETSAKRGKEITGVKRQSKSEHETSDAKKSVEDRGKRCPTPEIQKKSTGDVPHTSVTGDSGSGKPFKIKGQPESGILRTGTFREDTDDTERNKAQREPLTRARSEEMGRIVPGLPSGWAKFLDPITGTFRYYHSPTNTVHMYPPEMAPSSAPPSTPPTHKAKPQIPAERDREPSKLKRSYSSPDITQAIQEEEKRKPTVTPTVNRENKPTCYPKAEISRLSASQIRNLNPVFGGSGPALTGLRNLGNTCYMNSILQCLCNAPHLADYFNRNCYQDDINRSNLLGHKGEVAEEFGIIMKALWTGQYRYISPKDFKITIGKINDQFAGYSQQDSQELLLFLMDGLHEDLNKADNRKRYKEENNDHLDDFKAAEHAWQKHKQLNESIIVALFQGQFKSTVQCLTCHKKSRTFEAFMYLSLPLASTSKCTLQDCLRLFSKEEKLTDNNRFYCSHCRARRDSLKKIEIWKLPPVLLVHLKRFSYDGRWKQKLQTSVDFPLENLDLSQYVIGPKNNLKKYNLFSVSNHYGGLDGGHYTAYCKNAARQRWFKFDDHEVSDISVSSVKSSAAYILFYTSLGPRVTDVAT
The assay is described as follows: USP8 activity assay. In kind it is biochemical. The following applies: 400 nM Ub-AMC, 630 pM enzyme, pH8.8; pre-incubated 30 minutes at 25° C., 60 minutes at 37° C.; sigmoidal fit; read-out: USP 8. The source says: The cDNA encoding USP8 was obtained by PCR amplification from placenta mRNA. USP8 cDNA was subcloned by PCR into a baculovirus expression vector (pFastBac-HT; Invitrogen). A cDNA encoding a mutated USP8 was generated by mutagenic PCR. The corresponding protein encodes a cysteine to alanine substitution at residue 786. The sequences were ascertained by sequencing of the entire open reading frame. Bacmids encoding […] were generated following DH10bac transposition. The corresponding bacmids were transfected. into insect cells (Sf9). Viruses were recovered from culture supernatant and amplified twice. Insect cells (Sf9 or High Five; Invitrogen) were infected for 72 hours. Total cell lysates were harvested and lyzed in lysis buffer (Tris HCl 50 mM pH 7.6; 0.75 % NP40; 500 mM NaCl; 10% glycerol; 1 mM DTT; 10 mM imidazole; Protease Inhibitor Cocktail; AEBSF 20 μg.ml^−1; Aprotinin 10 μg.ml^−1). Proteins were affinity purified on metal affinity resins (Talon Metal affinity resin; BD Biosciences). Bound materials were extensively washed in wash buffer (50 mM Sodium Phosphate pH 7.0; 300 mM NaCl; 10 mM imidazole; 0.5% Triton X-100; 10% glycerol) and eluted from the resin in 250 mM imidazole-containing wash buffer. Proteins were dialyzed in dialysis buffer (Tris HCl pH 7.6 20 mM; NaCl 200 mM; DTT 1 mM; EDTA 1 mM; 10% Glycerol). Proteins purifications were analyzed on 4-12% NuPAGE (Invitrogen).
USP8 was diluted in USP buffer (50 mM Tris HCl; 0.5 mM EDTA; 5 mM DTT; 0.01% Triton X-100; Bovine Serum Albumin 0.05 mg.ml^−1 pH8.8). Compounds stocks (100 mM) were stored at −20° C. in DMSO.
Reactions were performed as duplicates in Black LJL 96 well plates (HE microplates; Molecular Devices; 20 μl final reaction volume).The substrate concentration for USP8 was 400 nM Ub-AMC (Boston Biochem). The concentrations of the enzyme (USP8) in specificity assays was 630 pM. The concentrations were determined in order to perform specificity assays under initial velocities at fixed substrate concentration. Compounds were pre-incubated with enzymes for 30 minutes at 25° C. Reactions were initiated by addition of substrate to the plates containing the enzymes (+/− compounds) diluted in assay buffer. Reactions were incubated for 60 minutes at 37° C. Reactions were stopped by adding acetic acid (100 mM final). Readings were performed on a Pherastar Fluorescent Reader (BMG). λ Emission 380 nm; λ Excitation=460 nm. Data (mean values +/− standard deviation) were analyzed as % of control (no compound) and plotted as percentage versus the Log of the compound concentration using GraphPad (Prism). Data were fitted to a sigmoidal model (variable slope).

This passage reports IC50 results from patent US20090181972A1, “Novel Inhibitors of Cysteine Proteases, the Pharmaceutical Compositions Thereof and their Therapeutic Applications” (priority 2005, published 2009).

As for “6-(7)-Chloro-1-methyl-2,3,4,10,10a-pentaaza-cyclopenta[b]fluoren-9-one [Example 3/A]”, the IC50 was determined as 301 nM. Turning to `CC(C)c1nnc2nc3c(nn12)-c1ccccc1C3=O` [Example 1l/B, 3-Isopropyl-1,2,3a,4,10-pentaaza-cyclopenta[b]fluoren-9-one], the IC50 worked out at 186 nM. Then `O=C1c2ccccc2-c2nn3c(C(F)(F)F)nnc3nc21` [Example 1m/B, 3-Trifluoromethyl-1,2,3a,4,10-pentaaza-cyclopenta[b]fluoren-9-one], with 162 nM; and `COCCOCCOCc1nnc2nc3c(nn12)C(=O)c1ccccc1-3` [Example 1n/A, 1-[2-(2-Methoxy-ethoxy)-ethoxymethyl]-2,3,4,10,10a-pentaaza-cyclopenta[b]fluoren-9-one], with 347 nM; and `COc1cc2c(cc1OC)-c1nn3c(C)nnc3nc1C2=O` [Example 5a/B, 6,7-Dimethoxy-3-methyl-1,2,3a,4,10-pentaaza-cyclopenta[b]fluoren-9-one], with 46 nM.

With `CCc1nnc2nc3c(nn12)C(=O)c1cc(OC)c(OC)cc1-3` [Example 5b/A, 1-Ethyl-6,7-dimethoxy-2,3,4,10,10a-pentaaza-cyclopenta[b]fluoren-9-one], the IC50 was 805 nM.

As for `CCc1nnc2nc3c(nn12)-c1cc(OC)c(OC)cc1C3=O` [Example 5b/B, 3-Ethyl-6,7-dimethoxy-1,2,3a,4,10-pentaaza-cyclopenta[b]fluoren-9-one], the IC50 came out at 65 nM. Consider `CCCc1nnc2nc3c(nn12)-c1cc(OC)c(OC)cc1C3=O` [Example 5c/B, 6,7-Dimethoxy-3-propyl-1,2,3a,4,10-pentaaza-cyclopenta[b]fluoren-9-one], for which the IC50 was found to be 104 nM. Then `CCc1nnc2nc3c(nn12)-c1c(OC)ccc(OC)c1C3=O` [Example 6/B, 3-Ethyl-5,8-dimethoxy-1,2,3a,4,10-pentaaza-cyclopenta[b]fluoren-9-one], with 360 nM.
